Calls of active or inactive are those of the source. The rule behind the calls is not given here.
Test system: CCRIS mutagenicity, Ames/micronucleus/aberration tests
Experiment: CCRIS mutagenicity studies
[1] = Test System: AMES SALMONELLA TYPHIMURIUM, Strain/Indicator: TA98, Metabolic Activation: NONE, Method: PREINCUBATION
[2] = Test System: AMES SALMONELLA TYPHIMURIUM, Strain/Indicator: TA100, Metabolic Activation: NONE, Method: PREINCUBATION
[3] = Test System: AMES SALMONELLA TYPHIMURIUM, Strain/Indicator: TA98, Metabolic Activation: RAT, LIVER, S-9, AROCLOR 1254, Method: STANDARD PLATE
[4] = Test System: MOUSE LYMPHOMA, Strain/Indicator: L5178Y (TK+/TK-), Metabolic Activation: NONE, Method: SUSPENSION/PLATE

O=[N+]([O-])c1ccc2oc3ccc([N+](=O)[O-])cc3c2c1
mutagenic call (Test System: AMES SALMONELLA TYPHIMURIUM, Strain/Indicator: TA98(1,8-DNP6), Metabolic Activation: NONE, Method: PREINCUBATION): active; positive
mutagenic call (Test System: AMES SALMONELLA TYPHIMURIUM, Strain/Indicator: TA98(1,8-DNP6), Metabolic Activation: NONE, Method: SUSPENSION): active; positive
mutagenic call (Test System: AMES SALMONELLA TYPHIMURIUM, Strain/Indicator: TA98(1,8-DNP6), Metabolic Activation: RAT, LIVER, S-9, PCB (5%), Method: PREINCUBATION): active; positive
mutagenic call (Test System: AMES SALMONELLA TYPHIMURIUM, Strain/Indicator: TA98(NR), Metabolic Activation: NONE, Method: PREINCUBATION): inactive; negative
mutagenic call (Test System: AMES SALMONELLA TYPHIMURIUM, Strain/Indicator: TA98(NR), Metabolic Activation: NONE, Method: SUSPENSION): inactive; negative
mutagenic call (Test System: AMES SALMONELLA TYPHIMURIUM, Strain/Indicator: TA98(NR), Metabolic Activation: RAT, LIVER, S-9 (10%), Method: PREINCUBATION): active; positive
mutagenic call (Test System: AMES SALMONELLA TYPHIMURIUM, Strain/Indicator: TA98(NR), Metabolic Activation: RAT, LIVER, S-9, 3-METHYLCHOLANTHRENE (10%), Method: PREINCUBATION): active; positive
mutagenic call (Test System: AMES SALMONELLA TYPHIMURIUM, Strain/Indicator: TA98(NR), Metabolic Activation: RAT, LIVER, S-9, BETA-NAPHTHOFLAVONE (10%), Method: PREINCUBATION): active; positive
mutagenic call (Test System: AMES SALMONELLA TYPHIMURIUM, Strain/Indicator: TA98(NR), Metabolic Activation: RAT, LIVER, S-9, PCB (5 OR 10%), Method: PREINCUBATION): active; positive
mutagenic call (Test System: AMES SALMONELLA TYPHIMURIUM, Strain/Indicator: TA98(NR), Metabolic Activation: RAT, LIVER, S-9, PHENOBARBITAL (10%), Method: PREINCUBATION): active; positive
mutagenic call [1]: active; positive
mutagenic call (Test System: AMES SALMONELLA TYPHIMURIUM, Strain/Indicator: TA98, Metabolic Activation: NONE, Method: SUSPENSION): active; positive
mutagenic call (Test System: AMES SALMONELLA TYPHIMURIUM, Strain/Indicator: TA98, Metabolic Activation: RAT, LIVER, S-9, PCB (5%), Method: PREINCUBATION): active; positive
mutagenic call (Test System: AMES SALMONELLA TYPHIMURIUM, Strain/Indicator: TA98, Metabolic Activation: RAT, LIVER, S-9, PCB, Method: SUSPENSION): active; positive
mutagenic call [2]: inactive; negative
mutagenic call (Test System: AMES SALMONELLA TYPHIMURIUM, Strain/Indicator: TA100, Metabolic Activation: NONE, Method: SUSPENSION): inactive; negative
mutagenic call (Test System: AMES SALMONELLA TYPHIMURIUM, Strain/Indicator: TA100, Metabolic Activation: RAT, LIVER, S-9, PCB (5%), Method: PREINCUBATION): inactive; negative
mutagenic call (Test System: AMES SALMONELLA TYPHIMURIUM, Strain/Indicator: TA100, Metabolic Activation: RAT, LIVER, S-9, PCB, Method: SUSPENSION): inactive; negative

CC[C@H]1CN2CCc3cc(OC)c(OC)cc3[C@@H]2C[C@@H]1C[C@H]1NCCc2cc(OC)c(OC)cc21
mutagenic call (Test System: AMES SALMONELLA TYPHIMURIUM, Strain/Indicator: TA98, Metabolic Activation: HAMSTER, LIVER, S-9, AROCLOR 1254 (10%), Method: PREINCUBATION): inactive; negative
mutagenic call [1]: inactive; negative
mutagenic call (Test System: AMES SALMONELLA TYPHIMURIUM, Strain/Indicator: TA98, Metabolic Activation: RAT, LIVER, S-9, AROCLOR 1254 (10%), Method: PREINCUBATION): inactive; negative
mutagenic call (Test System: AMES SALMONELLA TYPHIMURIUM, Strain/Indicator: TA100, Metabolic Activation: HAMSTER, LIVER, S-9, AROCLOR 1254 (10%), Method: PREINCUBATION): inactive; negative
mutagenic call [2]: inactive; negative
mutagenic call (Test System: AMES SALMONELLA TYPHIMURIUM, Strain/Indicator: TA100, Metabolic Activation: RAT, LIVER, S-9, AROCLOR 1254 (10%), Method: PREINCUBATION): inactive; negative
mutagenic call (Test System: AMES SALMONELLA TYPHIMURIUM, Strain/Indicator: TA1535, Metabolic Activation: HAMSTER, LIVER, S-9, AROCLOR 1254 (10%), Method: PREINCUBATION): inactive; negative
mutagenic call (Test System: AMES SALMONELLA TYPHIMURIUM, Strain/Indicator: TA1535, Metabolic Activation: NONE, Method: PREINCUBATION): inactive; negative
mutagenic call (Test System: AMES SALMONELLA TYPHIMURIUM, Strain/Indicator: TA1535, Metabolic Activation: RAT, LIVER, S-9, AROCLOR 1254 (10%), Method: PREINCUBATION): inactive; negative
mutagenic call (Test System: AMES SALMONELLA TYPHIMURIUM, Strain/Indicator: TA1537, Metabolic Activation: HAMSTER, LIVER, S-9, AROCLOR 1254 (10%), Method: PREINCUBATION): inactive; negative
mutagenic call (Test System: AMES SALMONELLA TYPHIMURIUM, Strain/Indicator: TA1537, Metabolic Activation: NONE, Method: PREINCUBATION): inactive; negative
mutagenic call (Test System: AMES SALMONELLA TYPHIMURIUM, Strain/Indicator: TA1537, Metabolic Activation: RAT, LIVER, S-9, AROCLOR 1254 (10%), Method: PREINCUBATION): inactive; negative

CC/C=C/C=C/C=C/C=C/C=C/OC[C@@H](O)CO
mutagenic call (Test System: AMES SALMONELLA TYPHIMURIUM, Strain/Indicator: TA98, Metabolic Activation: NONE, Method: STANDARD PLATE): active; positive
mutagenic call (Test System: AMES SALMONELLA TYPHIMURIUM, Strain/Indicator: TA98, Metabolic Activation: NONE, Method: STANDARD PLATE (AEROBIC)): inactive; negative
mutagenic call (Test System: AMES SALMONELLA TYPHIMURIUM, Strain/Indicator: TA98, Metabolic Activation: NONE, Method: STANDARD PLATE (ANAEROBIC)): active; positive
mutagenic call [3]: inactive; negative
mutagenic call (Test System: AMES SALMONELLA TYPHIMURIUM, Strain/Indicator: TA100, Metabolic Activation: NONE, Method: FLUCTUATION TEST (AEROBIC)): active; positive
mutagenic call (Test System: AMES SALMONELLA TYPHIMURIUM, Strain/Indicator: TA100, Metabolic Activation: NONE, Method: FLUCTUATION TEST (ANAEROBIC)): active; positive
mutagenic call (Test System: AMES SALMONELLA TYPHIMURIUM, Strain/Indicator: TA100, Metabolic Activation: NONE, Method: STANDARD PLATE): active; positive
mutagenic call (Test System: AMES SALMONELLA TYPHIMURIUM, Strain/Indicator: TA100, Metabolic Activation: NONE, Method: STANDARD PLATE (AEROBIC)): active; positive
mutagenic call (Test System: AMES SALMONELLA TYPHIMURIUM, Strain/Indicator: TA100, Metabolic Activation: NONE, Method: STANDARD PLATE (ANAEROBIC)): inactive; negative
mutagenic call (Test System: AMES SALMONELLA TYPHIMURIUM, Strain/Indicator: TA100, Metabolic Activation: RAT, LIVER, S-9, AROCLOR 1254, Method: PREINCUBATION): active; positive
mutagenic call (Test System: AMES SALMONELLA TYPHIMURIUM, Strain/Indicator: TA100, Metabolic Activation: RAT, LIVER, S-9, AROCLOR 1254, Method: STANDARD PLATE): active; positive
mutagenic call (Test System: AMES SALMONELLA TYPHIMURIUM, Strain/Indicator: TA102, Metabolic Activation: NONE, Method: STANDARD PLATE): active; positive
mutagenic call (Test System: AMES SALMONELLA TYPHIMURIUM, Strain/Indicator: TA104, Metabolic Activation: NONE, Method: STANDARD PLATE): active; positive
mutagenic call (Test System: AMES SALMONELLA TYPHIMURIUM, Strain/Indicator: TA104, Metabolic Activation: RAT, LIVER, S-9, AROCLOR 1254, Method: STANDARD PLATE): active; positive
mutagenic call (Test System: E. COLI, Strain/Indicator: WP2 UVRA (PKM101), Metabolic Activation: NONE, Method: STANDARD PLATE (AEROBIC)): active; positive
mutagenic call (Test System: E. COLI, Strain/Indicator: WP2 UVRA (PKM101), Metabolic Activation: NONE, Method: STANDARD PLATE (ANAEROBIC)): inactive; negative
mutagenic call [4]: active; positive
mutagenic call (Test System: MOUSE LYMPHOMA, Strain/Indicator: L5178Y (TK+/TK-), Metabolic Activation: RAT, LIVER, S-9, AROCLOR 1254, Method: SUSPENSION/PLATE): active; positive
mutagenic call (Test System: Mouse lymphoma, Strain/Indicator: L5178Y (tk+/tk-), Metabolic Activation: None, Method: Suspension/plate): active; positive
mutagenic call (Test System: Mouse lymphoma, Strain/Indicator: L5178Y (tk+/tk-), Metabolic Activation: Rat, Liver, S-9, Aroclor 1254, Method: Suspension/plate): inactive; negative

Cc1nc2c3c(ccc4ccc(O)cc43)ccc2n1C
mutagenic call [3]: active; positive

O=C(O)c1cc(=O)c2cccc(O)c2[nH]1
mutagenic call [2]: inactive; negative

CCN(CC)C(=S)S
mutagenic call (End Point: IN VITRO CHROMOSOMAL ABERRATIONS, Test System: CHO CELLS, Metabolic Activation: RAT, LIVER, S-9, AROCLOR 1254): inactive; negative
mutagenic call (End Point: IN VITRO CHROMOSOMAL ABERRATIONS, Test System: TK6 HUMAN LYMPHOBLASTS, Metabolic Activation: NONE): active; positive (weak response)
mutagenic call [4]: active; positive

Cc1cccc2c1c([N+](=O)[O-])cc[n+]2[O-]
mutagenic call (Test System: UDS RODENT PRIMARY CELLS, Strain/Indicator: THY INCORP (NON-S-PHASE), Metabolic Activation: NONE, Method: AUTORADIOGRAPHY): active; positive

— PubChem BioAssay AID1259407 (Chemical Carcinogenesis Research Information System (CCRIS), 2018)
